US12161637B2, “Anti-cancer gold complex, process of synthesis and method of treatment thereof” (King Saud University, priority 2022, dated 2024)
Read-outs that look alike come from different tables or passages of the source.

Assays:
Format in all cases: cell-based
[1] = system: MCF-7 breast cancer cells; test: Cell viability by MTT assay; conditions: read-out: IC50, cell viability (cytotoxicity)
From the text: Materials and methods: All organic ligands were purchased from Sigma-Aldrich and gold salts from Strom Chemicals USA. Breast cancer cell lines MCF-7 were obtained from American Type Culture Collection, ATCC (Virginia, USA). Dulbecco's Modified Eagle's Medium (DMEM), Fetal Bovine Serum (FBS), and 0.25% Trypsin 0.1% EDTA were obtained from Gibco (Grand Island, NY). The 3-(4,5-dimethylthiazol-2-yl)-2,5-diphenyltetrazolium bromide (MTT) and DMSO were purchased from Sigma-Aldrich (St. Louis, MO).
Cell viability was determined by 3-(4,5-dimethylthiazol-2-yl)-2,5-diphenyltetrazolium bromide (MTT) assay. Breast cancer cells, MCF-7, were seeded in a 96-well tissue culture plate at 10,000 cells/well in 200 μl of DMEM. […] Then, 20 μl of MTT (5 mg/mL) was added to the each well and incubated in a CO2 incubator at 37° C. in the dark for 3 h. After incubation, a purple-colored formazan dye is produced and appeared as dark crystals in the bottom of the wells. To dissolve the formazan crystals, the culture medium was discarded and 100 μL of isopropanol were added to each well. The absorbance was recorded at 570 nm against reagent blank. The cell viability was calculated by the formula below: Cell viability (%)=[Absorbance Compound/Absorbance DMSO]*100

[2] = system: MCF-7 breast cancer cell line; test: Apoptosis analysis, Muse Annexin V Live & Dead Cell Kit, flow cytometry; conditions: 24 h, versus control
Method: MCF-7 cells were seeded in 6 well plates at 1.5×10^4 cells per well. […] DMSO was used as a negative control. The final DMSO concentration in each well was less than 0.1%. The harvested cells were stained with Annexin V-FITC and Dead Cell reagent following the manufacture's protocol. Then, the percentage of apoptotic cells was estimated by flow cytometry.

MCF-7 cells [3] = test: Oxidative stress analysis (ROS generation), Muse Oxidative Stress Kit, flow cytometry; conditions: 24 h
Method: The induction of oxidative stress via ROS generation endogenously in cancer cells is a potential target of anticancer agents. Oxidative stress causes irreversible cellular damage which induces apoptosis in concentration-dependent manner. MCF-7 cells were plated at 1.5×10^4 cells/well using a 6 well plate to estimate the generation of reactive oxygen species (ROS). […] DMSO was used as a negative control. The final DMSO concentration in each well was less than 0.1%. Then, the cells were harvested and stained with Muse® Oxidative Stress Kit (Luminex, IL, USA) following the manufacture's protocol. The percentage of cells that were undergoing oxidative stress was measured by flow cytometry.

MCF-7 cells [4] = test: Mitochondrial membrane potential analysis, Muse MitoPotential Kit, flow cytometry; conditions: for percentage of depolarized cancer cells (mitochondrial membrane potential): 24 h
Method: Mitochondrial membrane potential is an important parameter to assess the integrity of mitochondria, which is a potential target in cancer therapeutics. The loss of mitochondrial membrane potential has been known to be associated with early stages of apoptosis and reactive oxygen species (ROS) induction. To assess the mitochondrial membrane potential, Muse® MitoPotential Kit (Luminex, IL, USA) was used. MCF-7 cells were seeded in a 6 well plate at 1.5×10^4 cells/well. […] DMSO was used as a negative control. The final DMSO concentration in each well was less than 0.1%. Then, cells were stained with MitoPotential reagents following the manufacture's protocol. The percentage of depolarized/live cells was estimated by flow cytometry.

[5] = MCF-7, higher concentration (5 μM)
[6] = MCF-7, lower concentration (1 μM)

Row | Compound | IC50 ([1]; MCF-7, 24 h treatment) [nM] | induction of apoptosis (early and late combined) ([2]; MCF-7, 1 μM) [folds] | induction of apoptosis (early and late combined) ([2]; MCF-7, 3 μM) [folds] | induction of apoptosis (early and late combined) ([2]; MCF-7, 10 μM) [folds] | ROS generation (MCF-7 cells [3]; MCF-7, 1 μM) [%] | ROS generation (MCF-7 cells [3]; MCF-7, 5 μM) [%] | mitochondrial membrane potential depolarization compared to positive control Sorafenib (MCF-7 cells [4]; MCF-7, 24 h) | percentage of depolarized cancer cells (mitochondrial membrane potential) (MCF-7 cells [4]; [5]) [%] | percentage of depolarized cancer cells (mitochondrial membrane potential) (MCF-7 cells [4]; [6]) [%] | IC50 ([1]; Homo sapiens, MCF7, MCF-7, 24 h treatment) [nM]
1 | O=Cc1ccnc(-c2cc(C=O)ccn2)c1.S=C([S][Au+2])N(Cc1ccccc1)Cc1ccccc1 [DDBDG, dibenzyldithiocarbamato-2,2′-bipyridine-4,4′-dicarboxaldehyde gold (III)] | 875 | 2.2 | 4.4 | 5.5 | 125.53 | 103.47 | roughly three-folds higher | 27.8 | 27.0 | 
2 | CNC(=O)c1cc(Oc2ccc(NC(=O)Nc3ccc(Cl)c(C(F)(F)F)c3)cc2)ccn1 [Sorafenib, reference compound] |  |  |  |  | 73.76 | 122.11 |  | 12.0 | 2.7 | 4440
